{"source": "patent US11911361B2", "about": "“Stable cannabinoid formulations” (priority 2014, dated 2024)", "key": {"[1]": {"assay": "Long-term safety study in pediatric patients with refractory epilepsy", "conditions": "human, in vivo, oral, 48 week", "description": "This was a long-term, open-label, 48-week study for pediatric subjects aged 1 year to 17 years with refractory epilepsy.\nThe study included 5 subjects aged 1 to <2 years (infants); 9 subjects aged 2 to <12 years (children), with ≥3 subjects under the age of 6 years; 6 subjects aged 12 to ≤17 years (adolescents), with ≥3 subjects under the age of 16 years."}, "[2]": {"assay": "Minimal motor impairment (rotorod) toxicity test (TOX), mice", "conditions": "in vivo"}, "[3]": {"system": "maximal electroshock-induced seizures", "assay": "Maximal electroshock test (MES), mice", "conditions": "for MES N/F (animals protected/tested): mice"}, "[4]": {"system": "paclitaxel-induced mechanical sensitivity", "assay": "Paclitaxel induced neuropathic pain study (Von Frey mechanical sensitivity)", "assay_type": "in vivo, mice"}}}
{"smiles": "C=C(C)[C@@H]1CCC(C)=C[C@H]1c1c(O)cc(CCCCC)cc1O", "note": "[cannabidiol, (−)-trans-2-p-mentha-1,8-dien-3-yl-5-pentylresorcinol]", "values": [{"measurement": "subjects with somnolence related to the CBD", "setting": "[1]", "value": 7.7, "unit": "%"}, {"measurement": "subjects with weight increase related to the CBD", "setting": "[1]", "value": 7.7, "unit": "%"}, {"measurement": "TD50 at 2 h", "setting": "[2]; CF1, mouse, TD50, Example 12, 1:1:18 ethanol:polyethoxylated castor oil:PBS solvent", "value": 262, "unit": "mg/kg"}, {"measurement": "TD50 at 0.5 hours", "setting": "[2]; CF1, mouse, TD50, Example 12, methylcellulose solvent, 0.5 hours post administration", "value": "> 500", "unit": "mg/kg"}, {"measurement": "TD50 at 2 h", "setting": "[2]; mouse, TD50, Example 13, 1:1:18 ethanol:polyethoxlated castor oil:PBS solvent", "value": 267, "unit": "mg/kg"}, {"measurement": "TD50 at 2 h", "setting": "[2]; mouse, TD50, Example 13, methylcellulose solvent", "value": "> 500", "unit": "mg/kg"}, {"measurement": "MES N/F (animals protected/tested)", "setting": "[3]; Anticonvulsant Screening, intraperitoneal, 10 mg/kg, 0.5 h, ethanol:polyethoxylated castor oil:PBS", "value": "0/4"}, {"measurement": "MES N/F (animals protected/tested)", "setting": "[3]; Anticonvulsant Screening, intraperitoneal, 10 mg/kg, 0.5 h, methylcellulose", "value": "0/4"}, {"measurement": "MES N/F (animals protected/tested)", "setting": "[3]; Anticonvulsant Screening, intraperitoneal, 10 mg/kg, 1.0 h, ethanol:polyethoxylated castor oil:PBS", "value": "0/4"}, {"measurement": "MES N/F (animals protected/tested)", "setting": "[3]; Anticonvulsant Screening, intraperitoneal, 10 mg/kg, 1.0 h, methylcellulose", "value": "0/4"}, {"measurement": "MES N/F (animals protected/tested)", "setting": "[3]; Anticonvulsant Screening, intraperitoneal, 10 mg/kg, 2.0 h, ethanol:polyethoxylated castor oil:PBS", "value": "0/4"}, {"measurement": "MES N/F (animals protected/tested)", "setting": "[3]; Anticonvulsant Screening, intraperitoneal, 10 mg/kg, 2.0 h, methylcellulose", "value": "0/4"}, {"measurement": "MES N/F (animals protected/tested)", "setting": "[3]; Anticonvulsant Screening, intraperitoneal, 30 mg/kg, 0.5 h, ethanol:polyethoxylated castor oil:PBS", "value": "0/4"}, {"measurement": "MES N/F (animals protected/tested)", "setting": "[3]; Anticonvulsant Screening, intraperitoneal, 30 mg/kg, 0.5 h, methylcellulose", "value": "0/4"}, {"measurement": "MES N/F (animals protected/tested)", "setting": "[3]; Anticonvulsant Screening, intraperitoneal, 30 mg/kg, 1.0 h, ethanol:polyethoxylated castor oil:PBS", "value": "1/4"}, {"measurement": "MES N/F (animals protected/tested)", "setting": "[3]; Anticonvulsant Screening, intraperitoneal, 30 mg/kg, 1.0 h, methylcellulose", "value": "0/4"}, {"measurement": "MES N/F (animals protected/tested)", "setting": "[3]; Anticonvulsant Screening, intraperitoneal, 30 mg/kg, 2.0 h, ethanol:polyethoxylated castor oil:PBS", "value": "0/4"}, {"measurement": "MES N/F (animals protected/tested)", "setting": "[3]; Anticonvulsant Screening, intraperitoneal, 30 mg/kg, 2.0 h, methylcellulose", "value": "0/4"}, {"measurement": "MES N/F (animals protected/tested)", "setting": "[3]; Anticonvulsant Screening, intraperitoneal, 100 mg/kg, 0.5 h, ethanol:polyethoxylated castor oil:PBS", "value": "0/4"}, {"measurement": "MES N/F (animals protected/tested)", "setting": "[3]; Anticonvulsant Screening, intraperitoneal, 100 mg/kg, 0.5 h, methylcellulose", "value": "0/4"}, {"measurement": "MES N/F (animals protected/tested)", "setting": "[3]; Anticonvulsant Screening, intraperitoneal, 100 mg/kg, 1.0 h, ethanol:polyethoxylated castor oil:PBS", "value": "2/4"}, {"measurement": "MES N/F (animals protected/tested)", "setting": "[3]; Anticonvulsant Screening, intraperitoneal, 100 mg/kg, 1.0 h, methylcellulose", "value": "1/4"}, {"measurement": "MES N/F (animals protected/tested)", "setting": "[3]; Anticonvulsant Screening, intraperitoneal, 100 mg/kg, 2.0 h, ethanol:polyethoxylated castor oil:PBS", "value": "1/4"}, {"measurement": "MES N/F (animals protected/tested)", "setting": "[3]; Anticonvulsant Screening, intraperitoneal, 100 mg/kg, 2.0 h, methylcellulose", "value": "2/4"}, {"measurement": "MES N/F (animals protected/tested)", "setting": "[3]; ED50 Biological Response (Table 57), 200 mg/kg, 2 h, methylcellulose", "value": "5/8"}, {"measurement": "MES N/F (animals protected/tested)", "setting": "[3]; ED50 Biological Response (Table 57), 250 mg/kg, 2 h, methylcellulose", "value": "4/8"}, {"measurement": "MES N/F (animals protected/tested)", "setting": "[3]; ED50 Biological Response (Table 57), 350 mg/kg, 2 h, methylcellulose", "value": "3/8"}, {"measurement": "MES N/F (animals protected/tested)", "setting": "[3]; ED50 Biological Response (Table 57), 400 mg/kg, 2 h, methylcellulose", "value": "3/8"}, {"measurement": "MES N/F (animals protected/tested)", "setting": "[3]; ED50 Biological Response (Table 57), 450 mg/kg, 2 h, methylcellulose", "value": "6/8"}, {"measurement": "MES N/F (animals protected/tested)", "setting": "[3]; ED50 Biological Response (Table 57), 500 mg/kg, 2 h, methylcellulose", "value": "8/8"}, {"measurement": "MES N/F (animals protected/tested)", "setting": "[3]; ED50 Biological Response (Table 59), 75 mg/kg, 2 h, ethanol:polyethoxylated castor oil:PBS", "value": "1/8"}, {"measurement": "MES N/F (animals protected/tested)", "setting": "[3]; ED50 Biological Response (Table 59), 95 mg/kg, 2 h, ethanol:polyethoxylated castor oil:PBS", "value": "5/8"}, {"measurement": "MES N/F (animals protected/tested)", "setting": "[3]; ED50 Biological Response (Table 59), 120 mg/kg, 2 h, ethanol:polyethoxylated castor oil:PBS", "value": "7/8"}, {"measurement": "MES N/F (animals protected/tested)", "setting": "[3]; ED50 Biological Response (Table 59), 150 mg/kg, 2 h, ethanol:polyethoxylated castor oil:PBS", "value": "8/8"}, {"measurement": "ED50", "setting": "[3]; Mus musculus", "value": 92.2, "unit": "mg/kg"}, {"measurement": "MES N/F (animals protected/tested)", "setting": "[3]; Tables 57/58, 300 mg/kg, 2 h, methylcellulose", "value": "4/8"}, {"measurement": "MES N/F (animals protected/tested)", "setting": "[3]; Time to Peak Effect (Table 58), 300 mg/kg, 0.25 h, methylcellulose", "value": "0/4"}, {"measurement": "MES N/F (animals protected/tested)", "setting": "[3]; Time to Peak Effect (Table 58), 300 mg/kg, 0.5 h, methylcellulose", "value": "1/4"}, {"measurement": "MES N/F (animals protected/tested)", "setting": "[3]; Time to Peak Effect (Table 58), 300 mg/kg, 1 h, methylcellulose", "value": "1/4"}, {"measurement": "MES N/F (animals protected/tested)", "setting": "[3]; Time to Peak Effect (Table 58), 300 mg/kg, 4 h, methylcellulose", "value": "2/4"}, {"measurement": "ED50", "setting": "[3]; methylcellulose solvent", "value": "could not be calculated"}, {"measurement": "animals protected / tested", "setting": "[3]; methylcellulose solvent, 0.5 hr", "value": "¼"}, {"measurement": "animals protected / tested", "setting": "[3]; methylcellulose solvent, 1 hr", "value": "¼"}, {"measurement": "animals protected / tested", "setting": "[3]; methylcellulose solvent, 2 hr", "value": "4/8"}, {"measurement": "animals protected / tested", "setting": "[3]; methylcellulose solvent, 4 hr", "value": "2/4"}, {"measurement": "alleviating chemotherapy-induced neuropathic pain (in words)", "setting": "[4]; Example 7, IP, Day 21", "value": "most effective level of alleviating chemotherapy-induced neuropathic pain"}, {"measurement": "minimal effective dose", "setting": "[4]; IP", "value": 1.25, "unit": "mg/kg"}, {"measurement": "effect on paclitaxel-induced mechanical sensitivity (in words)", "setting": "[4]; pretreatment 15 minutes prior to each paclitaxel injection, IP", "value": "significantly attenuated"}]}
